The values below come from patent US10844091B2 (priority 2017, dated 2020).

What all share (assay type): in vivo
Experiment [1] concerns rat models with AD. Kind of experiment: Open field (OF) test, scopolamine-induced Alzheimer's disease model. Particulars: scopolamine AD rats; 0.1 mg/kg i.n. 10 days; p<0.05. As for the experimental part:
(§1) White random-bred adult male rats weighing 200-240 g were used. Groups of 7 animals per group were formed. 1st group—control, 2nd—pathology, 3rd—comparator drug, 4th-6th—neuropeptides.
(§2) The drugs were administered daily, once a day.
After a course of treatment with the preparations, the CNS function of the animals was evaluated according to the open field (OF), extrapolation escape (EE), and conditioning passive avoidance reflex (CPAR) tests [Guidelines for conducting nonclinical studies of pharmaceuticals/edited by A. N. Mironov, MD, PhD, Part 1, M.: Grief and K, 2012-944 p.; Methods of behavior analysis in neuroscience—London, New York, Washington: CRCPress, 2001.-329 p.], and also The Porsolt swim test (PST) [Methods of behavior analysis in neuroscience—London, New York, Washington: CRCPress, 2001.-329 p; Porsolt R. D. Depression: A new animal model sensitive to antidepressant treatments/R. D. Porsolt, M. LePichon, M. Oalfre//Nature.—1977.—Vol. 266.—P. 730-732.].
The OF and EE tests were conducted on the 1st day, PST—on the 2nd day, CPAR—on the 1st and 10th day post treatment with the preparations. […] The antiamnesic action (AA) in the CPAR test was calculated using Butler's formula [K. S. Radionova. […] The brain was extracted and weighed, and the brain weight coefficient (BWC) was calculated. […]

For experiment [2], the system named is reduced glutathione. Description: Reduced glutathione level in the brain of rat models with Alzheimer's disease. The note with it: tetrapeptide 0.1 mg/kg. As for the experimental part:
as §2
(§3) Standard biochemical methods were used to determine the content and activity of antioxidant defense enzymes and products of lipid peroxidation: malonic dialdehyde (MDA) [Modern Biochemistry Methods/[edited by V. N. Orekhovich]; M. Medicine, 1977, 392 pp]; superoxide dismutase (SOD) [O. P. Makarevich Activity of superoxide dismutase in blood in the acute period of various diseases/O. P. Makarevich, P. P. Golikov//Lab. Science, 1983, No 6, pp 24-27]; catalase [Methods for the Determination of Catalase Activity/M. A. Korolyuk, L. I. Ivanova, I. G. Mayorova, et al//Lab. Science, 1988, No 1, pp 16-19]; and reduced glutathione [T. A. Kochetov A Practical Guide to Enzymology. M. Nauka, 1980, 280 pp].

The subject of experiment [3] is malonic aldehyde. Description: Malonic aldehyde content in the brain of rat models with Alzheimer's disease. The note with it: tetrapeptide 0.1 mg/kg.
Experiment [4] concerns catalase. Description: Catalase activity in the brain of rat models with Alzheimer's disease. Particulars: tetrapeptide 0.1 mg/kg; statistically significant. As for the experimental part: as §2, §3
Experiment [5] concerns rat models with AD. Description: Porsolt swim test (PST), scopolamine-induced Alzheimer's disease model. The note with it: AD rats; donepezil 1 mg/kg i.p., tetrapeptide (LYS) 0.1 mg/kg i.n. The method, then:
as §1
(§4) Scopolamine was administered i.p. to the animals in all groups except for the control at a 1 mg/kg dose daily, once a day for 27 days. From the 28th day on, the animals in groups 2 and 3 were administered the comparator drug and the claimed preparation respectively over the course of 10 days. The drugs were administered daily, once a day.
(§5) The tetrapeptides were administered i.n at a 0.1 mg/kg dose. The animals in the pathology group received 0.9% sodium chloride solution i.n. and i.p. as a placebo.
(§6) The OF and EE tests were conducted on the 1st day, PST—on the 2nd day, CPAR—on the 1st and 10th day post treatment with the preparations. […] The antiamnesic action (AA) in the CPAR test was calculated using Butler's formula [K. S. Radionova. […] After that, the animals were removed from the experiment by administering a narcotic, followed by decapitation. The brain was extracted and weighed, and the brain weight coefficient (BWC) was calculated. Immediately after extraction, the brain was frozen in liquid nitrogen and used in subsequent biochemical and histochemical studies. Glucose levels in whole arterial (common carotid artery) and venous (venous cerebral sinus) blood were determined by the glucose oxidase test, the difference in the arterial-venous glucose content was calculated (glucose consumption marker). The levels of average weight molecules—the toxic products of cell biodegradation damaged during the disease (nucleoside derivatives, peptoids, glucuronic acid salts, etc.) in the blood serum (AWM) were calculated [A. N. Kovalevsky. Notes on the screening method of determination average weight molecules/A. N. Kovalevsky, O. Ye. Nifantiev//Lab. Science. […] 35-39].

For experiment [6], the system named is acetylcholine. Kind of experiment: Acetylcholine content in the brain homogenate of rat models with Alzheimer's disease. The note with it: compared to the control, pathology and donepezil groups, p<0.05. The method, then: as §2
1966, t. […] M. I. Prokhorova, Leningrad, pub. House LSU, 1982.—pp. 256-258].

Experiment [7] deals with rat models with Alzheimer's disease. Description: Conditioned passive avoidance reflex (CPAR) test, scopolamine-induced Alzheimer's disease model. The note with it: for antiamnesic action (AA) in the CPAR test: Butler's formula, 0.1 mg/kg; for number of animals who reached the CPAR learning criterium: % of total trained animals, criterium at least 180 sec in light area. The method, then:
as §1, §4, §5, §6

Non-standard residues stand in square brackets, D forms with d.

On to “acetyl-D-Lys-Lys-Arg-Arg-amide (Ac-[dK]KRR-NH2; SMILES CC(=O)N[C@H](CCCCN)C(=O)N[C@@H](CCCCN)C(=O)N[C@@H](CCCNC(=N)N)C(=O)N[C@@H](CCCNC(=N)N)C(N)=O) [tetrapeptide (LYS), peptide acetyl-X-ARG-ARG-amide, X = D- and L-amino acid residues of lysine]”, for which the “reduction of the number of grooming acts in the OF” value in experiment [1] stood at 44.7%. Besides, in experiment [2], the “increase of the level of reduced glutathione in the brain” value is on record as 36.6%. Further, the “reduction of malonic aldehyde content in the brain relative to the pathology group” value in experiment [3] is given as 39.8%. Moreover, the “reduction of the elevated activity of catalase” value in experiment [4] worked out at 1.1 times. In experiment [5], the “Latent period of immobilization” value worked out at 68.12 ± 6.15 s, the “Number of immobilization acts” value was determined as 6.21 ± 0.82 and the “Total duration of immobilization” value amounted to 111.06 ± 13.25 s. Moreover, the “content of acetylcholinesterase in the brain (FIG. 11)” value in experiment [6] was “statistically significantly reduces”. For the same substance, in experiment [7] (10th day), the “antiamnesic action (AA) in the CPAR test” value was found to be 81.5%. In experiment [7] (24 hrs. post formation of CPAR), the “increase of latent period compared to the pathology group” value turned out to be 79.5%. The “Latent period of entry into the dark area of the CPAR device, In 24 hrs.” value in experiment [7] (In 24 hrs., scopolamine + donepezil 1 mg/kg or tetrapeptide (LYS) 0.1 mg/kg i.n.) came to 126.14 ± 23.62 s. Further, the “Latent period of entry into the dark area of the CPAR device, In 10 days” value in experiment [7] (In 10 days, scopolamine + donepezil 1 mg/kg or tetrapeptide (LYS) 0.1 mg/kg i.n.) is given as 89.71 ± 19.09^ sec. Besides, the “Latent period of entry into the dark area of the CPAR device, Initial” value in experiment [7] (Initial, scopolamine + donepezil 1 mg/kg or tetrapeptide (LYS) 0.1 mg/kg i.n.) is 20.14 ± 3.73 s. In addition, in experiment [7] (first day), the “number of animals who reached the CPAR learning criterium” value is listed as 42.9% and the “antiamnesic action (AA) in the CPAR test” value is recorded as 56.5%. The “increase of latent period compared to the pathology group” value in experiment [7] (post 10 days, p<0.05) came to 130.9%. Also, the “number of animals who reached the CPAR learning criterium” value in experiment [7] (tenth day) is on record as 14.3%.
